Literature values in patent publication US20030035827A1, “Pharmaceutical compositions containing substrates of enabling enzymes to preferentially deliver drugs away from PBVC or GIC systems” (priority 2001, published 2003).
Like-named read-outs stand apart in the source and are kept apart here.

Molecular target: pseudocholinesterase, plasma cholinesterase or butyrocholinesterase (PCE) (Homo sapiens, UniProt P06276)
[1] = substrate of PCE, previous experiments
[2] = substrate of PCE, previous experiments, read-out: Km

Chain of pseudocholinesterase, plasma cholinesterase or butyrocholinesterase (PCE) (P06276 29-602): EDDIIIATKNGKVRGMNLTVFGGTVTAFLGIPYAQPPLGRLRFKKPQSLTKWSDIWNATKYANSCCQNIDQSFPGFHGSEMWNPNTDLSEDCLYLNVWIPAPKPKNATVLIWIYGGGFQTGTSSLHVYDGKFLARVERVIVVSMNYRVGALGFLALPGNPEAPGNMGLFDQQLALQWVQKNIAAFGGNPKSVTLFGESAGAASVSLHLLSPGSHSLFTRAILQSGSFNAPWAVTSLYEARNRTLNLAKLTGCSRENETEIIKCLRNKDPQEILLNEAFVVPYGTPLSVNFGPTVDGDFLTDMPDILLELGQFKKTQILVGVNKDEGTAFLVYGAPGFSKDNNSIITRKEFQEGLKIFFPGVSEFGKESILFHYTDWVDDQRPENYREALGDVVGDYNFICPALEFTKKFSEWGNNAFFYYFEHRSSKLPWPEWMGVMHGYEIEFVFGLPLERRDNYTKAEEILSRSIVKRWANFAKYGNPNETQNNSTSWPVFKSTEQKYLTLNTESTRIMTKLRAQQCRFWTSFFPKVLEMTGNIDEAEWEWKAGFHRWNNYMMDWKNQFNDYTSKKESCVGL

In the case of `CC(=O)OCC[N+](C)(C)C` [Acetylcholine], the Km [1] is listed as 9,000 uM.

For `CC(=O)Oc1ccccc1C(=O)O` [Aspirin], the Kcat [1] is given as 7,200/min and the Km [1] is given as 1,600 uM.

For `C[N+](C)(C)CCOC(=O)c1ccccc1` [Benzoylcholine], the Kcat [1] is given as 15,000/min and the Km [2] is given as 22 µM.

In the case of `CCCC(=O)OCC[N+](C)(C)C` [Butyrylcholine], the Kcat [1] is listed as 80,000/min and the Km [2] is listed as 1700 µM.

In the case of `CCCC(=O)SCC[N+](C)(C)C` [Butyrylthiocholine], the Kcat [1] is listed as 30,000/min.

In the case of `CCCCCCC(=O)OCC[N+](C)(C)C` [Hepanoylcholine], the Kcat is listed as 35,000/min and the Km (read-out: Km) is listed as 1110 µM.

For `CC(=O)Oc1ccc2c3c1O[C@H]1[C@@H](OC(C)=O)C=C[C@H]4[C@@H](C2)N(C)CC[C@@]341` [Heroin], the Km is given as 450 µM and the Kcat [1] is given as 500 min⁻¹.

For `CCCCCC(=O)OCC[N+](C)(C)C` [Hexanoylcholine], the Km (read-out: Km) is given as 820 µM and the Kcat [1] is given as 36,000/min.

In the case of `CCCC(=O)Oc1ccccc1[N+](=O)[O-]` [O-Nitrophenylbutyrate], the Kcat is given as 48,000/min and the Km (read-out: Km) is given as 400 µM.

In the case of `CCCCC(=O)OCC[N+](C)(C)C` [Pentanoylcholine], the Km (read-out: Km) is given as 1500 µM and the Kcat [1] is given as 63,000/min.

In the case of `CCN(CC)CCOC(=O)c1ccc(N)cc1` [Procaine], the Km is listed as 100 µM and the Kcat [1] is listed as 255 min⁻¹.

In the case of `CCC(=O)OCC[N+](C)(C)C` [Propionylcholine], the Kcat [1] is listed as 55,000/min and the Km [2] is listed as 3100 µM.

For `CCCCNc1ccc(C(=O)OCCN(C)C)cc1` [Tetracaine], the Kcat [1] is given as 74 min⁻¹ and the Km [1] is given as 8 µM.

In the case of Succinyldithiocholine, the Kcat [1] is given as 600 min⁻¹ and the Km [2] is given as 1080 µM.
